Measured values from article PMC6056506, “Single olfactory receptors set odor detection thresholds” (Nature Communications, 2018).

Legend:
Test in all cases: in vivo wide-field GCaMP3 calcium imaging of identified glomeruli, awake mice
TAAR3 = target: T1, TAAR3 (Mus musculus, UniProt Q5QD16); settings: agonist, vapour-phase odorant concentration (flow dilution olfactometer), not aqueous, glomerular read-out
T1 construct: full-length native receptor from endogenous locus in olfactory sensory neurons; allele TAAR3-IRES-tauVenus (TAAR3-YFP); receptor itself untagged
T1 sequence (Q5QD16 1-343): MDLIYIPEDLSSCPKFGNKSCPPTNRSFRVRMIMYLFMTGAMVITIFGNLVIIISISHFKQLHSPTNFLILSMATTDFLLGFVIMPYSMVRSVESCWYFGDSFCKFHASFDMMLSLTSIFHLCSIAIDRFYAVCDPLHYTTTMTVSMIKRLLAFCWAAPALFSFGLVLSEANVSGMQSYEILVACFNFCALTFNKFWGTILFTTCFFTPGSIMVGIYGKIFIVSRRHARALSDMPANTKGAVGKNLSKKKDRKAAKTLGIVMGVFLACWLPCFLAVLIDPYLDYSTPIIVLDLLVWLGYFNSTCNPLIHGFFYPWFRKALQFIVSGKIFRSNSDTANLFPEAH

TAAR4 = target: T2, TAAR4 (Mus musculus, UniProt Q5QD15); settings: agonist; vapour-phase odorant concentration (flow dilution olfactometer), not aqueous; glomerular read-out
T2 construct: full-length native receptor from endogenous locus in olfactory sensory neurons; allele TAAR4-IRES-tauCherry (TAAR4-RFP); receptor itself untagged
T2 sequence (Q5QD15 1-347): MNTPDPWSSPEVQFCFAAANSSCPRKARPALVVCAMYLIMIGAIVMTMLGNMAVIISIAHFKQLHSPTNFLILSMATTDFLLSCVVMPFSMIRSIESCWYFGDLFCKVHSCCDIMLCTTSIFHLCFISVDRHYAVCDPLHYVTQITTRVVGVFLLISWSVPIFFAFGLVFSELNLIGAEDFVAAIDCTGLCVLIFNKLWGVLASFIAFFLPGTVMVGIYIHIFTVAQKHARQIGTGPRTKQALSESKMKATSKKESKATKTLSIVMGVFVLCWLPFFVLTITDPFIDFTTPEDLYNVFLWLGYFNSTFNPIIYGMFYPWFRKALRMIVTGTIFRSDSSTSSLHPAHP

TAAR5 = target: T3, TAAR5 (Mus musculus, UniProt Q5QD14); settings: agonist; vapour-phase odorant concentration (flow dilution olfactometer), not aqueous; glomerular read-out
T3 construct: full-length native receptor in olfactory sensory neurons; glomeruli identified by response profile and from separate TAAR5-RFP imaging experiments
T3 sequence (Q5QD14 1-337): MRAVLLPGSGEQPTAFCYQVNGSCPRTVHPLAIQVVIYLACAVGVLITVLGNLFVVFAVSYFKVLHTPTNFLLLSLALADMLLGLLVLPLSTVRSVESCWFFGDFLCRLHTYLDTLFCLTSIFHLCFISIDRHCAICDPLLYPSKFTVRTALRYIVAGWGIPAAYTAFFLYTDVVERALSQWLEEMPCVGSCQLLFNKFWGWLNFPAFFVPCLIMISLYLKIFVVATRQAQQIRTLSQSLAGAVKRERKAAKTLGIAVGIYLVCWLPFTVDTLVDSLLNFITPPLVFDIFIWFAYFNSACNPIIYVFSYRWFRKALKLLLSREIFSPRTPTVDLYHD

SMILES	EC50 (TAAR3; printed CI does not contain the value) [nM]	EC50 (TAAR4) [nM]	EC50 (TAAR3) [nM]	EC50 (TAAR5) [nM]
NCCc1ccccc1 [phenylethylamine]	0.19			
CC(C)CCN [isopentylamine]		9.9	0.41	
CN(C)C [trimethylamine]		470	790	31
